Laboratory results reported in patent publication US20210087184A1, “AMINO-BENZOISOTHIAZOLE AND AMINO-BENZOISOTHIADIAZOLE AMIDE COMPOUNDS” (Aerie Pharmaceuticals, Inc., priority 2018, published 2021).
Structures can show the parent of a compound that is named as a salt.

Experiment: Topical pharmaceutical composition administered to the eyes (Examples 246-253)
Type: in vivo
Conditions: for intraocular pressure / neuroprotective agent: 0.50 wt % topical eye drop composition of Example 246
Protocol: Topical pharmaceutical compositions for lowering intraocular pressure are prepared by conventional methods and formulated as follows: […]
A compound according to this disclosure is used as the 6-aminobenzoisothiazole derivative. […]

[1] = 0.50 wt % topical eye drop composition of Example 246, twice per day

Structure (SMILES) | intraocular pressure | neuroprotective agent | hyperemia, redness and ocular irritation (0.50 wt % topical eye drop composition of Example 246, as needed) | allergic symptoms [1] | dry eye syndrome [1]
Cl.Cl.NCC(C(=O)Nc1ccc2cnsc2c1F)c1ccsc1 (stereo not drawn) [3-amino-N-(7-fluoro-benzoisothiazol-6-yl)-2-(thiophen-3-yl)propanamide dihydrochloride] | substantially decreases | serves as a neuroprotective agent | – | – | –
NC(CC(=O)Nc1ccc2cnsc2c1)c1ccsc1 (stereo not drawn) [Example E6, 3-amino-N-(benzoisothiazol-6-yl)-3-(thiophen-3-yl)propanamide dihydrochloride] | substantially decreases | serves as a neuroprotective agent | – | – | –
CN(C)CC(C(=O)Nc1ccc2cnsc2c1)c1ccsc1 (stereo not drawn) [Example E44, 3-(dimethylamino)-N-(benzoisothiazol-6-yl)-2-(thiophen-3-yl)propanamide dihydrochloride] | – | – | substantially decreases | – | –
NCC(C(=O)Nc1ccc2cnsc2c1)c1ccsc1 (stereo not drawn) [Example E49, 3-amino-N-(benzoisothiazol-6-yl)-2-(thiophen-3-yl)propanamide dihydrochloride] | substantially decreases | – | – | – | –
O=C(NCc1ccccn1)c1ccc([C@H]2C[C@@H]2C(=O)Nc2ccc3cnsc3c2)cc1 [Example E150, 4-((1S,2S)-2-(benzoisothiazol-6-ylcarbamoyl)cyclopropyl)-N-(pyridin-2-ylmethyl)benzamide] | substantially decreases | – | – | substantially decreases | relieves
